Measurements as given in patent US20040209891A1, “Treatment of type 2 diabetes with inhibitors of dipeptidyl peptidase IV” (priority 2001, published 2004).
Counter-ions that a name gives are not always drawn.

Columns and labels:
ZDF rat = test: Effect of long-term inhibition of DP-IV in ZDF rat (four weeks dosing); type: in vivo; conditions: male ZDF rats; for Glycaemia: day of development of significant hyperglycaemia: obese control hyperglycaemic at day 8
Source text: Control animals are given vehicle. A group of untreated lean rats is used as a comparison. Glycaemia, insulinaemia, body weight, food and water intake, and plasma triglyceride and free fatty acid levels are monitored throughout the study.

Human DP-IV = Human DP-IV (Homo sapiens, UniProt P27487); type: biochemical; conditions: substrate Ala-Pro-AFC, fluorescence
Sequence of Human DP-IV (P27487 whole entry): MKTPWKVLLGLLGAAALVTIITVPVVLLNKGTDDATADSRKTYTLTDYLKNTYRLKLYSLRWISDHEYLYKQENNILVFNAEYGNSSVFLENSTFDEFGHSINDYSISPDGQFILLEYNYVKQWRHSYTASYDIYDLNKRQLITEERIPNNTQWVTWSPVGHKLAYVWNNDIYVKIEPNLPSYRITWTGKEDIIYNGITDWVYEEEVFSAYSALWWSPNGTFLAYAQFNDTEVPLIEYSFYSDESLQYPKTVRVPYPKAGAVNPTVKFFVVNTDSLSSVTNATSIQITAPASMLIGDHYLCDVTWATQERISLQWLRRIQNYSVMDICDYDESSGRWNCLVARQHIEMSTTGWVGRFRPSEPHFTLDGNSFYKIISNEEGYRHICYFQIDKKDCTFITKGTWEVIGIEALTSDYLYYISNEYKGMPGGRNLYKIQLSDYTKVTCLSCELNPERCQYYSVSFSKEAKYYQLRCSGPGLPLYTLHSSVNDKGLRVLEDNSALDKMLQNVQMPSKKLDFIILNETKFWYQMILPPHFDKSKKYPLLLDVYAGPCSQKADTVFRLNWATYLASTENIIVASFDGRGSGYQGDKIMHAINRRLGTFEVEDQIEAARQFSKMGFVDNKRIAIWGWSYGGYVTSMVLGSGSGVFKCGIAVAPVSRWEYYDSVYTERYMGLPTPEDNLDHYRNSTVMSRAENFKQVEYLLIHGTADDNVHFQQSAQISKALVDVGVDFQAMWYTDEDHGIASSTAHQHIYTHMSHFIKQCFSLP
Method: The in vitro inhibitory action of the compounds is determined in a fluorimetric assay. Human DP-IV is incubated with a standard substrate, Ala-Pro-AFC, in the presence of various concentrations of the inhibitor. The reaction is monitored by measuring the increase in fluorescence due to the reaction product, AFC. Using standard manipulations, an inhibitory constant, Ki, is determined.

SMILES | Glycaemia: day of development of significant hyperglycaemia (ZDF rat; 10 mg/kg p.o. once daily) | Insulinaemia: day on which peak insulin level is reached (ZDF rat; 10 mg/kg p.o. once daily, obese control peak by day 8) | Glycaemia: day of development of significant hyperglycaemia (ZDF rat; 10 mg/kg p.o. twice daily) | Ki (Human DP-IV)
CC(C)(C)[C@H](N)C(=O)N1CCC[C@H]1C#N [Example 1A, (2S)-1-((2′S)-2′-amino-3′,3′-dimethylbutanoyl)pyrrolidine-2-carbonitrile hydrochloride] | 15 days | 11 days | 24 days | 
N#C[C@@H]1CCCN1C(=O)[C@@H](N)CCCNC(=O)c1cnccn1 [Example 1B, (2S)-1-((2′S)-2′-amino-5′-pyrazinecarbonylaminopentanoyl)pyrrolidine-2-carbonitrile trifluoroacetate] |  |  |  | 0.4 nM
